Several values for one entry are separate records, joined by “and”; a condition that tells them apart may be missing. Equal values may be shown once.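 Grown in 96-well plates, cells were treated for 48 hours with each compound at five concentrations. Insufficient inhibition: endpoint recorded as highest concentration tested. The concentration for 50% growth inhibition is given as GI50. TGI: total growth inhibition.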
Assays:
Test in all cases: DTP human tumour cell line panel, 48 h
NCI-H460 lung = test system: NCI-H460 lung
NCI-H522 lung = test system: NCI-H522 lung
NCI/ADR-RES ovarian = test system: NCI/ADR-RES ovarian
OVCAR-3 ovarian = test system: OVCAR-3 ovarian
OVCAR-4 ovarian = test system: OVCAR-4 ovarian
OVCAR-5 ovarian = test system: OVCAR-5 ovarian
OVCAR-8 ovarian = test system: OVCAR-8 ovarian
PC-3 prostate = test system: PC-3 prostate
RPMI-8226 leukemia = test system: RPMI-8226 leukemia
RXF 393 renal = test system: RXF 393 renal
SF-268 CNS = test system: SF-268 CNS
SF-295 CNS = test system: SF-295 CNS
SF-539 CNS = test system: SF-539 CNS
SK-MEL-2 melanoma = test system: SK-MEL-2 melanoma
SK-MEL-28 melanoma = test system: SK-MEL-28 melanoma
SK-MEL-5 melanoma = test system: SK-MEL-5 melanoma
SK-OV-3 ovarian = test system: SK-OV-3 ovarian
SN12C renal = test system: SN12C renal
SNB-19 CNS = test system: SNB-19 CNS
SNB-75 CNS = test system: SNB-75 CNS
SR leukemia = test system: SR leukemia
SW-620 colon = test system: SW-620 colon
T-47D breast = test system: T-47D breast
TK-10 renal = test system: TK-10 renal
U251 CNS = test system: U251 CNS
UACC-257 melanoma = test system: UACC-257 melanoma
UACC-62 melanoma = test system: UACC-62 melanoma
UO-31 renal = test system: UO-31 renal

With `CC(C)C[C@@H](NC(=O)[C@@H](Cc1ccccc1)NC(=O)c1cnccn1)B1O[C@H]2[C@H](O)[C@@H](C(=O)NCCCC[C@@H]3NC(=O)[C@@H](Cc4ccccc4)NC(=O)[C@H](CC(=O)O)NC(=O)CNC(=O)[C@H](CCCN=C(N)N)NC3=O)O[C@@H](CN)[C@H]2O1` the GI50 (NCI-H460 lung) was 34.4 nM and 17.9 nM, the TGI (NCI-H460 lung) was 135 nM and 185 nM and the GI50 (NCI-H522 lung) was 3.3 nM and < 5 nM. The TGI (NCI-H522 lung) was 11.5 nM and < 5 nM, the GI50 (NCI/ADR-RES ovarian) was 98.4 nM and 84.4 nM and the TGI (NCI/ADR-RES ovarian) was 586 nM. For the same molecule, the GI50 (OVCAR-3 ovarian) was 3.39 nM and 5 nM, the TGI (OVCAR-3 ovarian) was 10.6 nM and 10.4 nM and the GI50 (OVCAR-4 ovarian) was 9.35 nM and 5 nM. For the same molecule, the TGI (OVCAR-4 ovarian) was 451 nM and 1090 nM, the GI50 (OVCAR-5 ovarian) was 13.5 nM and 19.6 nM and the TGI (OVCAR-5 ovarian) was 97.8 nM and 799 nM. For the same molecule, the GI50 (OVCAR-8 ovarian) was 36.5 nM and 13.9 nM, the TGI (OVCAR-8 ovarian) was 622 nM and 98.7 nM and the GI50 (PC-3 prostate) was 27.3 nM and 15.3 nM. For the same molecule, the TGI (PC-3 prostate) was 389 nM and 563 nM, the GI50 (RPMI-8226 leukemia) was 3.73 nM and 5 nM and the TGI (RPMI-8226 leukemia) was 267 nM and 1040 nM. For the same molecule, the GI50 (RXF 393 renal) was 3.45 nM and < 5 nM, the TGI (RXF 393 renal) was 13.5 nM and < 5 nM and the GI50 (SF-268 CNS) was 8.77 nM and 5.35 nM. The TGI (SF-268 CNS) was 38.7 nM and 57.4 nM, the GI50 (SF-295 CNS) was 4.86 nM and 5 nM and the TGI (SF-295 CNS) was 20 nM and 14.7 nM. The GI50 (SF-539 CNS) was 3.19 nM and 5 nM, the TGI (SF-539 CNS) was 15 nM and 12.3 nM and the GI50 (SK-MEL-2 melanoma) was 7.02 nM and 5 nM. For the same molecule, the TGI (SK-MEL-2 melanoma) was 60.4 nM and 12.3 nM, the GI50 (SK-MEL-28 melanoma) was 7.66 nM and 5 nM and the TGI (SK-MEL-28 melanoma) was 285 nM and 235 nM. For the same molecule, the GI50 (SK-MEL-5 melanoma) was 4.57 nM and 5 nM, the TGI (SK-MEL-5 melanoma) was 18.8 nM and 8.55 nM and the GI50 (SK-OV-3 ovarian) was 35.4 nM and 14.8 nM. The TGI (SK-OV-3 ovarian) was 296 nM and 941 nM, the GI50 (SN12C renal) was 11.7 nM and 13 nM and the TGI (SN12C renal) was 55 nM and 485 nM. The GI50 (SNB-19 CNS) was 13.6 nM and 5 nM, the TGI (SNB-19 CNS) was 5120 nM and the GI50 (SNB-75 CNS) was 18.8 nM. For the same molecule, the TGI (SNB-75 CNS) was 51.6 nM, the GI50 (SR leukemia) was 2.61 nM and the GI50 (SW-620 colon) was 4.54 nM and 5 nM. The TGI (SW-620 colon) was 239 nM and 652 nM, the GI50 (T-47D breast) was 5.98 nM and 5 nM and the TGI (T-47D breast) was 64.8 nM and 25 nM. For the same molecule, the GI50 (TK-10 renal) was 3.08 nM and 5 nM, the TGI (TK-10 renal) was 24.9 nM and 8.51 nM and the GI50 (U251 CNS) was 32.8 nM and 5.92 nM. The TGI (U251 CNS) was 218 nM and 43.1 nM, the GI50 (UACC-257 melanoma) was 13.5 nM and 5 nM and the TGI (UACC-257 melanoma) was 81.2 nM and 18.3 nM. The GI50 (UACC-62 melanoma) was 4.39 nM and 5 nM, the TGI (UACC-62 melanoma) was 40.8 nM and 14 nM and the GI50 (UO-31 renal) was 8.68 nM and 5 nM. The TGI (UO-31 renal) was 89 nM and 36 nM.
